{
  "source": "paper PMC9971447",
  "about": "(Asian Pacific Journal of Cancer Prevention : APJCP, 2022)",
  "key": {"SW480": {"system": "SW480", "experiment": "SRB antiproliferation assay, SW480 colorectal cancer cells", "format": "cell-based"}, "[1]": {"system": "RAW 264.7 mouse macrophage cell line (nitric oxide synthase readout)", "experiment": "LPS-triggered NO", "format": "cell-based", "conditions": "for antiinflammation potency compared with indomethacin: LPS-triggered inflammation in RAW macrophages, in words"}, "PANC1": {"system": "PANC1", "experiment": "SRB antiproliferation assay, PANC1 pancreatic cells", "format": "cell-based"}, "MCF7": {"system": "MCF7", "experiment": "SRB antiproliferation assay, MCF7 breast cancer cells", "format": "cell-based"}, "T47D [2]": {"system": "T47D", "experiment": "SRB antiproliferation assay, T47D breast cancer cells", "format": "cell-based"}, "SW620 [3]": {"system": "SW620", "experiment": "SRB antiproliferation assay, SW620 colorectal cancer cells", "format": "cell-based", "conditions": "read-out: Cytotoxicity (as of %Control) IC50 value, SW620, 72 h incubations, mean ± SD, n = 3"}, "CACO2": {"system": "CACO2", "experiment": "SRB antiproliferation assay, CACO2 colorectal cancer cells", "conditions": "read-out: Cytotoxicity (as of %Control) IC50 value, CACO2, 72 h incubations, mean ± SD, n = 3"}, "[4]": {"system": "colorectal cancer cell lines", "conditions": "ref Mamdooh et al., 2019; cited from earlier work"}, "HT29": {"system": "HT29", "experiment": "SRB antiproliferation assay, HT29 colorectal cancer cells", "format": "cell-based", "conditions": "read-out: Cytotoxicity (as of %Control) IC50 value, HT29, 72 h incubations, mean ± SD, n = 3"}, "A375.2S cell line": {"system": "A375.2S cell line", "conditions": "read-out: antiproliferative IC50, A375.2S cell line; ref AlKhalil et al., 2020; cited from earlier work"}, "HCT116": {"system": "HCT116", "experiment": "SRB antiproliferation assay, HCT116 colorectal cancer cells", "format": "cell-based"}, "T47D [5]": {"system": "T47D", "conditions": "read-out: antiproliferative IC50, T47D cell line; ref AlKhalil et al., 2020; cited from earlier work"}, "SW620 [6]": {"system": "SW620", "conditions": "read-out: IC50 value in SW620 cells; ref Mamdooh et al., 2019; cited from earlier work"}, "[7]": {"conditions": "Homo sapiens, SW480, 72 h, read-out: Cytotoxicity (as of %Control) IC50 value, SW480, SRB, 72 h incubations, mean ± SD, n = 3"}, "[8]": {"conditions": "read-out: Cytotoxicity (as of %Control) IC50 value, SW480, SRB, 72 h incubations, mean ± SD, n = 3"}, "[9]": {"conditions": "Mus musculus, RAW264.7, 24 h, read-out: NOS- IC50 value, LPS 20 μg/mL, RAW264.7, 24h incubations, mean ± SD, n = 3"}, "[10]": {"conditions": "Homo sapiens, PANC-1, 72 h, read-out: Cytotoxicity (as of %Control) IC50 value, PANC 1, SRB, 72 h incubations, mean ± SD, n = 3"}, "[11]": {"conditions": "read-out: Cytotoxicity (as of %Control) IC50 value, MCF7, SRB, 72 h incubations, mean ± SD, n = 3"}, "[12]": {"conditions": "Homo sapiens, T47D, 72 h, read-out: Cytotoxicity (as of %Control) IC50 value, T47D, SRB, 72 h incubations, mean ± SD, n = 3"}, "[13]": {"conditions": "read-out: Cytotoxicity (as of %Control) IC50 value, T47D, SRB, 72 h incubations, mean ± SD, n = 3"}, "[14]": {"conditions": "read-out: NOS- IC50 value, LPS 20 μg/mL, RAW264.7, 24h incubations, mean ± SD, n = 3"}, "[15]": {"conditions": "Homo sapiens, MCF7, 72 h, read-out: Cytotoxicity (as of %Control) IC50 value, MCF7, SRB, 72 h incubations, mean ± SD, n = 3"}},
  "note": "Like-named read-outs stand apart in the source and are kept apart here.",
  "data": [
    {"smiles": "CC[C@H](C)C(=O)O[C@H]1CCC=C2C=C[C@H](C)[C@H](CC[C@@H]3C[C@@H](O)CC(=O)O3)[C@H]21", "note": "[Mevastatin]", "values": [
      {"measurement": "IC50", "setting": "SW480; [7]", "value": "< 50", "unit": "µM"},
      {"measurement": "IC50", "setting": "SW480; [8]", "value": 36, "unit": "µM"},
      {"measurement": "antiinflammation potency compared with indomethacin", "setting": "[1]", "value": "inferior antiinflammation potency to indomethacin"},
      {"measurement": "IC50", "setting": "[1]; [9]", "value": "142 ± 17.2", "unit": "µM"},
      {"measurement": "IC50", "setting": "PANC1; [10]", "value": "> 50", "unit": "µM"},
      {"measurement": "IC50", "setting": "MCF7; [11]", "value": "> 50", "unit": "µM"},
      {"measurement": "IC50", "setting": "T47D [2]; [12]", "value": "> 50", "unit": "µM"}
    ]},
    {"smiles": "CC(C)c1nc(N(C)S(C)(=O)=O)nc(-c2ccc(F)cc2)c1/C=C/[C@@H](O)C[C@@H](O)CC(=O)O", "note": "[Rosuvastatin]", "values": [
      {"measurement": "IC50", "setting": "SW480; [8]", "value": 23, "unit": "µM"},
      {"measurement": "antiinflammation potency compared with indomethacin", "setting": "[1]", "value": "equipotency to indomethacin"},
      {"measurement": "IC50", "setting": "[1]; [9]", "value": "74.2 ± 13.1", "unit": "µM"},
      {"measurement": "IC50", "setting": "PANC1; [10]", "value": "> 50", "unit": "µM"},
      {"measurement": "IC50", "setting": "SW620 [3]", "value": 15, "unit": "µM"},
      {"measurement": "IC50", "setting": "MCF7; [11]", "value": 1.5, "unit": "µM"},
      {"measurement": "IC50", "setting": "T47D [2]; [12]", "value": "> 50", "unit": "µM"}
    ]},
    {"smiles": "CC(C)n1c(/C=C/C(O)CC(O)CC(=O)O)c(-c2ccc(F)cc2)c2ccccc21", "note": "(stereo not drawn) [Fluvastatin]", "values": [
      {"measurement": "antiinflammation potency compared with indomethacin", "setting": "[1]", "value": "equipotency to indomethacin"},
      {"measurement": "IC50", "setting": "[1]; [9]", "value": "110 ± 20.6", "unit": "µM"},
      {"measurement": "IC50", "setting": "PANC1; [10]", "value": "> 50", "unit": "µM"},
      {"measurement": "IC50", "setting": "MCF7; [11]", "value": "> 50", "unit": "µM"},
      {"measurement": "IC50", "setting": "T47D [2]; [13]", "value": "> 50", "unit": "µM"}
    ]},
    {"smiles": "CC[C@H](C)C(=O)O[C@H]1C[C@@H](C)C=C2C=C[C@H](C)[C@H](CC[C@@H]3C[C@@H](O)CC(=O)O3)[C@H]21", "note": "[Lovastatin]", "values": [
      {"measurement": "antiinflammation potency compared with indomethacin", "setting": "[1]", "value": "substantially more potent"},
      {"measurement": "IC50", "setting": "[1]; [9]", "value": 42, "unit": "µM"},
      {"measurement": "IC50", "setting": "[1]; [14]", "value": "41.6 ± 4.34", "unit": "µM"},
      {"measurement": "IC50", "setting": "CACO2", "value": "> 100", "unit": "µM"}
    ]},
    {"smiles": "O=C(O)c1cn(C2CC2)c2cc(N3CCNCC3)c(F)cc2c1=O", "note": "[ciprofloxacin]", "values": [
      {"measurement": "activity against CRC cell lines (in words)", "setting": "[4]", "value": "did not show any activity"}
    ]},
    {"smiles": "CCC(C)(C)C(=O)O[C@H]1C[C@@H](C)C=C2C=C[C@H](C)[C@H](CC[C@@H]3C[C@@H](O)CC(=O)O3)[C@H]21", "note": "[Simvastatin]", "values": [
      {"measurement": "antiinflammation potency compared with indomethacin", "setting": "[1]", "value": "substantially more potent"},
      {"measurement": "IC50", "setting": "[1]; [9]", "value": 42, "unit": "µM"},
      {"measurement": "IC50", "setting": "[1]; [14]", "value": "42.5 ± 6.41", "unit": "µM"}
    ]},
    {"smiles": "CO/N=C1\\CN(c2nc3c(cc2F)c(=O)c(C(=O)O)cn3C2CC2)CC1CN", "note": "(stereo not drawn) [gemifloxacin]", "values": [
      {"measurement": "activity against CRC cell lines (in words)", "setting": "[4]", "value": "active"}
    ]},
    {"smiles": "O=C(O)C[C@H](O)C[C@H](O)/C=C/c1c(C2CC2)nc2ccccc2c1-c1ccc(F)cc1", "note": "[Pitavastatin]", "values": [
      {"measurement": "antiinflammation potency compared with indomethacin", "setting": "[1]", "value": "equipotency to indomethacin"},
      {"measurement": "IC50", "setting": "[1]; [9]", "value": "98.7 ± 1.87", "unit": "µM"},
      {"measurement": "IC50", "setting": "PANC1; read-out: Cytotoxicity (as of %Control) IC50 value, PANC 1, SRB, 72 h incubations, mean ± SD, n = 3", "value": "> 50", "unit": "µM"},
      {"measurement": "IC50", "setting": "MCF7; [15]", "value": "> 50", "unit": "µM"},
      {"measurement": "IC50", "setting": "T47D [2]; [13]", "value": "> 50", "unit": "µM"}
    ]},
    {"smiles": "CC[C@H](C)C(=O)O[C@H]1C[C@H](O)C=C2C=C[C@H](C)[C@H](CC[C@@H](O)C[C@@H](O)CC(=O)O)[C@H]21", "note": "[Pravastatin]", "values": [
      {"measurement": "antiinflammation potency compared with indomethacin", "setting": "[1]", "value": "inferior antiinflammation potency to indomethacin"},
      {"measurement": "IC50", "setting": "[1]; [9]", "value": "204 ± 14.1", "unit": "µM"},
      {"measurement": "IC50", "setting": "HT29", "value": "< 50", "unit": "µM"},
      {"measurement": "IC50", "setting": "PANC1; [10]", "value": "> 50", "unit": "µM"}
    ]},
    {"smiles": "CC(C)c1c(C(=O)Nc2ccccc2)c(-c2ccccc2)c(-c2ccc(F)cc2)n1CC[C@@H](O)C[C@@H](O)CC(=O)O", "note": "[Atorvastatin]", "values": [
      {"measurement": "IC50", "setting": "A375.2S cell line", "value": 0.0156, "unit": "µM"},
      {"measurement": "IC50", "setting": "HCT116; read-out: Cytotoxicity (as of %Control) IC50 value, HCT116, SRB, 72 h incubations, mean ± SD, n = 3", "value": "< 50", "unit": "µM"},
      {"measurement": "antiinflammation potency compared with indomethacin", "setting": "[1]", "value": "substantially more potent"},
      {"measurement": "IC50", "setting": "[1]; [9]", "value": 42, "unit": "µM"},
      {"measurement": "IC50", "setting": "[1]; [14]", "value": "42.8 ± 7.17", "unit": "µM"},
      {"measurement": "IC50", "setting": "SW620 [3]", "value": "< 50", "unit": "µM"},
      {"measurement": "IC50", "setting": "T47D [5]", "value": 34.6, "unit": "µM"},
      {"measurement": "IC50", "setting": "SW620 [6]", "value": 0.0018, "unit": "µM"}
    ]},
    {"smiles": "COCc1c(C(C)C)nc(C(C)C)c(/C=C/[C@@H](O)C[C@@H](O)CC(=O)O)c1-c1ccc(F)cc1", "note": "[Cerivastatin]", "values": [
      {"measurement": "IC50", "setting": "SW480; [7]", "value": 6, "unit": "µM"},
      {"measurement": "IC50", "setting": "HCT116; Homo sapiens, HCT-116, 72 h, read-out: Cytotoxicity (as of %Control) IC50 value, HCT116, SRB, 72 h incubations, mean ± SD, n = 3", "value": 2.9, "unit": "µM"},
      {"measurement": "NOS- IC50 value", "setting": "[1]; LPS 20 μg/mL, RAW264.7, 24h incubations, mean ± SD, n = 3", "value": "lack and noninhibitory"},
      {"measurement": "IC50", "setting": "PANC1; [10]", "value": "< 50", "unit": "µM"},
      {"measurement": "IC50", "setting": "MCF7; [15]", "value": "< 50", "unit": "µM"},
      {"measurement": "IC50", "setting": "T47D [2]; [13]", "value": "< 50", "unit": "µM"}
    ]},
    {"smiles": "COc1ccc2c(c1)c(CC(=O)O)c(C)n2C(=O)c1ccc(Cl)cc1", "note": "[Indomethacin]", "values": [
      {"measurement": "IC50", "setting": "[1]; [9]", "value": 87, "unit": "µM"},
      {"measurement": "IC50", "setting": "[1]; [14]", "value": "86.5 ± 10.5", "unit": "µM"}
    ]},
    {"smiles": "COc1cccc2c1C(=O)c1c(O)c3c(c(O)c1C2=O)C[C@@](O)(C(=O)CO)C[C@@H]3O[C@H]1C[C@H](N)[C@H](O)[C@H](C)O1", "note": "[Doxorubicin]", "values": [
      {"measurement": "activity against CRC cell lines (in words)", "setting": "[4]", "value": "nanomolar"}
    ]}
  ]
}
